Experimental data published in US7309793B2, “Benzopyran derivatives substituted with a benzimidazole derivative, pharmaceutically acceptable salts therof, their preparations and pharmaceutical compositions containing them” (Dongbu Hannong Chemical Co., Ltd., priority 2003, dated 2007).
pIC50: −log10 of the molar value.

Assays:
rat aorta = experiment: Vasodilating effect on blood vessel isolated from white rats (methoxamine-constricted aortic rings); conditions: for pIC50: isolated rat aorta constricted with methoxamine (3 μM), endothelium removed, read-out: Concentration for inhibition of constriction induced by methoxamine in rat arota (IC50); for weaker vasorelaxation effect than that of BMS-180448 (times): ratio of IC50 versus BMS-180448
Source text: White rats (350˜450 g; the Experimental Animal Team of the Korea Research Institute of Chemical Technology) were knocked to be unconscious by hitting the occipital region, sacrificed by cervical dislocation, and underwent thoracotomy. After being quickly removed, the thoracic aorta was deprived of the adipose tissue and cut into aortic rings of 3 mm width. The aorta was lightly rubbed with cotton club soaked in a modified Krebs Henseleit buffer (physiological salt solution) to remove the inner […] layer therefrom. While being hung in an organ bath containing a physiological buffer, the vascular smooth muscle was allowed to equilibrate under a resting tension of 2 g and then, stand for 1 hour at 37° C. for stabilization, supplying a carbogen consisting of 95% O2/5% CO2. Thereafter, the vascular smooth muscle was constricted with 10^−5 M phenylephrine and washed several times with physiological saline solution. The said procedure was repeated to ensure the stable reactivity of vascular smooth muscle to repetitive constriction/relaxation.
Thereafter, 3×10^−6 M methoxamine was applied to induce an intensive constriction in the vascular smooth muscle. When the vasoconstriction induced by the methoxamine was reached and maintained to a maximum, test compounds and control material were cumulatively added to the organ bath with concentration of 1, 3, 10 and 30 μM, respectively, to examine the vasodilating effect. Cromakalim and BMS-180448 (compound of <Formula 2>), known to be the first generation KATP opener with potent vasodilating effect, were used as control materials.
The change rate of constriction by the addition of the drugs compared to the maximal constriction induced by methoxamine was calculated to plot a concentration-relaxation response curve. Through a least linear regression analysis, IC50 that the drug concentration at which the vascular tissue is relaxed to 50% extent of the maximal constriction, was obtained for each drug. And the results were shown in the below Table 1.

isolated rat hearts = experiment: Cardioprotective effect on isolated ischemic heart models of white rats (Langendorff, global ischemia-reperfusion); conditions: 10 μM; for LVDP × HR (left ventricular developed pressure × heart rate), % of pre-treatment / EDP (left ventricular end diastolic pressure): 30 min global ischemia, 30 min reperfusion; for EDP (left ventricular end diastolic pressure): baseline 5 mmHg; for LDH (concentration of lactate dehydrogenase, reperfusion release): after 30 min reperfusion; for TTC (time to contracture / time to induce contraction): during 30 min global ischemia, first 5 mmHg increase in EDP
Description: 100 mg/kg of sodium pentobarbital was injected in abdominal cavity of white male rats (300˜450 g; the experimental animal team of the Korea Research Institute of Chemical Technology) to anesthetize them. Then, an intravenous injection of 1000 U/kg of heparin was performed before taking out heart. Particularly, cannula(PE 240) was inserted in the trachea, and artificial respiration was tried upon the rat by using a rodent ventilator. Under that condition, aortic cannula was inserted in the aorta and heart was taken out under retrograde perfusion. The extracted heart was hung on Langendorff apparatus quickly and unnecessary tissues on heart were removed. Perfusion was induced under static pressure (85 mmHg) with 37° C. modified Krebs-Henseleit bicarbonate buffer (composition <mM/L>: 116 NaCl, 4.7 KCl, 1.1 MgSO4, 1.17 KH2PO4, 24.9 NaHCO3, 2.52 CaCl2, 8.32 Glucose, 2.0 Pyruvate) saturated with 95% O2/5% CO2. A metal cannula, to which a latex balloon filled with a ethanol-distilled water mixture (1:1 vol/vol) was linked, was inserted in left ventricle through pulmonary vein. Then, left ventricular pressure transmitted through the balloon was transduced by using pressure transducer, and amplified by using isovolumetric amplifier(Plugsys bridge amplifier). Then, the pressure was recorded in a recorder (Linearcorder mark 8 WR 3500). Thereafter, heart was stabilized for 15 minutes. Then, left ventricular end diastolic pressure (LVEDP) was given by 5 mmHg and such volume of the balloon was kept throughout the experiments.
Baseline cardiac contractile function, heart rate (HR), and coronary flow (CF) were measured. Cardiac contractile function was calculated by […], yielding LVDP (left ventricular developed pressure). Double product RPP (rate-pressure product)(DP), another important parameter for indirectly assessing cardiac performance in Langendorff heart, in which cardiac output could not be measured ordinarily, was calculated by multiplying HR by LVDP. Throughout the experiment, total coronary blood flow was measured by the use of coronary flow probe (diameter: 1.0 mm) installed in aortic cannula with electromagnetic flowmeter. Temperature of heart was steadily maintained by immersing the heart at 37° C. in physiological saline solution to which 95% O2/5% CO2 was constantly supplied. After stabilization for 15 min, the hearts were pre-treated for 10 min with vehicle (0.04% DMSO) only or a compound of the present invention or the control material in the vehicle. Thereafter, cardiac contractile function, HR and CF were repeatedly measured. Global ischemia was induced by completely shutting off the perfusate for 30 min. Severity of ischemia was determined as the time to contracture (TTC, min) during global ischemia in which the first 5 mmHg increase in EDP was observed. Then, the hearts were reperfused and, 30 min later, contractile functions (LVDP, HR and CF) were repeatedly measured. After reperfusion was accomplished for 30 min, LDH (lactate dehydrogenase) was measured with a kit as a sensitive index for loss of cell viability.

Structure (SMILES)	pIC50 (rat aorta)	weaker vasorelaxation effects than that of Cromakalim (times) (rat aorta; ratio of IC50 versus Cromakalim)	LVDP × HR (left ventricular developed pressure × heart rate), % of pre-treatment (isolated rat hearts)	EDP (left ventricular end diastolic pressure) (isolated rat hearts)	LDH (concentration of lactate dehydrogenase, reperfusion release) (isolated rat hearts)	TTC (time to contracture / time to induce contraction) (isolated rat hearts)	weaker vasorelaxation effect than that of BMS-180448 (times) (rat aorta)
CC1(C)Oc2ccc(C#N)cc2[C@@H](NC(=NC#N)Nc2ccc(Cl)cc2)[C@@H]1O [BMS-180448, reference compound]	5.86	twenty times weaker	67.6%	16.5 mmHg	17.2 unit/g	27.8 min	–
CC1(C)Oc2ccc(C#N)cc2C(N2CCCC2=O)C1O (centres unmarked) [Cromakalim, reference compound]	7.17	–	–	–	–	–	–
COC(OC)[C@@]1(C)Oc2ccc([N+](=O)[O-])cc2[C@H](n2c(=NC#N)[nH]c3ccccc32)[C@H]1O [Example 1, (2S, 3R, 4S)-6-nitro-3,4-dihydro-3-hydroxy-2-dimethoxymethyl-2-methyl-4-(2,3-dihydro-2-cyanoimino-1H-benzimidazol-1-yl)-2H-1-benzopyran]	4.30	–	68.8%	20.3 mmHg	8.1 unit/g	23.2 min	36 times
COC(OC)[C@@]1(C)Oc2ccc([N+](=O)[O-])cc2[C@H](n2c(=O)[nH]c3ccccc32)[C@H]1O [Example 18, (2S, 3R, 4S)-6-nitro-3,4-dihydro-3-hydroxy-2-dimethoxymethyl-2-methyl-4-(2,3-dihydro-2-oxo-1H-benzimidazol-1-yl)-2H-1-benzopyran]	–	–	41.5%	29.3 mmHg	20.4 unit/g	24.2 min	–
CC1(C)Oc2ccc([N+](=O)[O-])cc2[C@H](n2c(=O)[nH]c3ccccc32)[C@H]1O [Example 20, (3R, 4S)-6-nitro-3,4-dihydro-3-hydroxy-2,2-dimethyl-4-(2,3-dihydro-2-oxo-1H-benzimidazol-1-yl)-2H-1-benzopyran]	4.73	–	55.5%	29.0 mmHg	20.7 unit/g	23.9 min	10 times
